Where “and” joins values, the source holds several entries; their conditions need not be identical. Identical values can stand only once.
Tests used:
[1] = test system: corn (Dekalb T2000, B73×LH 38); experiment: Field evaluation: yield of corn, silt loam location; format: in vivo
Excerpt: (§1) Field Evaluation: Field evaluations are based on the N content of corn leaf tissue and grain yield utilizing two soil types. Replicate (4X) field plots are established at two different locations, one having (I) silt loam soil and one (II) with sandy loam soil. These soils had been previously cropped to non-fertilized corn to reduce the level of residual N. Maduramicin monoammonium salt is applied (0.25, 0.125, 0.07 ppm) with NH3 (84 or 168 kg N/ha) through a "downstream" by an injection system into silt loam plots. Nitrapyrin (0.25 ppm=0.56 kg a.i./ha), nitrogen checks, benzyl alcohol (1.16L/ha) (BA) and a O nitrogen check are included for comparison. Individual replicate plot sizes are 3.04M×22.8M (4, 76-cm corn rows×22.8M long) Anhydrous ammonia are injected on 76-cm centers.
(§2) Urea, treated or non-treated with Maduramicin monoammonium salt is broadcast on the surface of sandy loam plots. Plots are then planted with corn the day following treatment. Dekalb T2000 is planted 10 May on silt loam plots and Pioneer 3352 is planted 11 May in sandy loam plots.
(§3) Corn ear leaf tissues collected at silking on silt loam plots or 60 days post silking (on silt loam and sandy loam plots) are collected from each plot and assayed for total N (AOAC procedures). Grain yields are determined by harvesting the two center rows×15.2 m of each plot.

Nitrobacter spp. = experiment: Nitrite nitrogen in ammonium amended soil incubated at 25° C.; details: soil 25° C., 200 ppm N
Description: Determination of nitrite nitrogen and nitrate nitrogen in soil prepared in Example 1 above, which is amended with 200 ppm of nitrogen as aqueous ammonium sulfate, […], is determined using the nitrite and nitrate analysis of the American Organization of Analytical Chemists (AOAC pp. 653-655).

[2] = test system: corn (Dekalb T2000, B73×LH 38); experiment: Field evaluation: corn ear leaf tissue nitrogen, silt loam plots; format: in vivo; details: for Corn Leaf Tissue Analysis (total N): ear leaf at silking
Excerpt: as §1, §2, §3

corn (Pioneer 3352) = experiment: Field evaluation: yield of corn, sandy loam plots; format: in vivo; details: sandy loam
Excerpt: as §1
Plots are then planted with corn the day following treatment. Dekalb T2000 is planted 10 May on silt loam plots and Pioneer 3352 is planted 11 May in sandy loam plots.
as §3

Nitrosomonas spp. = experiment: Nitrification of ammonium in soil incubated at 25° C. (ammonium recovery, nitrate accumulation); details: soil 25° C.; for Concentration of nitrate nitrogen / Recovery of Ammonium Nitrogen: 200 ppm N
Description: In these evaluations, one hundred grams (100 g) of oven dry, silt loam field soil with low residual nitrogen is added to a 6×12 cm screw-capped glass jar for each sampling date to provide an optimum environment for nitrification.
Two replicates of each treatment-sampling date are established. The soil is adjusted to 50% water saturation with an aqueous solution of ammonium sulfate at 200 ppm N and the chemical to be tested as a nitrification inhibitor at rates of from 0.10 to 0.50 ppm.
Incubation is at either 25° C. or 38° C. for 0, 1, 2, 4, 7, 9, 12, 16 or 20 weeks. Inorganic N is extracted by adding 2M KCl (10:1 v/w) and shaking for one hour, allowing settling for fifteen minutes. A 10 ml aliquot from the supernatant is assayed for ammonium, nitrite and nitrate by standard steam distillation methods (AOAC, pp. 653-655). Nitrapyrin (0.5 ppm) is used as a nitrification inhibitor for comparison. Benzyl alcohol, acetone, and a non-N amended soil are run as controls and as a check on mineralization.
Nitrification: Ammonium recovery and nitrate accumulation are indicative of nitrification, and data obtained with test compounds are reported in Tables I and II.

Nitrosomonos = experiment: Nitrification of ammonium amended field soil incubated at 38° C. (ammonium recovery, nitrate); details: 0.50 ppm, soil 38° C., 200 ppm N
Description: (§4) Determination of Nitrification Inhibition of Soil amended with 200 ppm of nitrogen as ammonium sulfate and 0.5 ppm of Nitrapyrin or 0.5 ppm of Maduramicin, monoammonium salt.
(§5) Soil samples prepared as described in Example 1 above are incubated at 38° C. for 20 weeks. Samples are taken at intervals during the 20 week period, extracted with 2M KCl (10:1 v/w), and assayed for ammonium nitrite and nitrate by standard steam distillation methods.

Nitrabacter = experiment: Nitrite in ammonium amended field soil incubated at 38° C.; details: 0.50 ppm, soil 38° C., 200 ppm N
Description: as §4, §5

Urease = Urease activity of urea amended soil, 38° C., 24 hrs; format: biochemical
Description: Urease activity: Five grams (5 g) oven-dry soil is treated with 5 ml of aqueous urea solution (1000 ug/g soil), with or without the test compound, and incubated in 65 ml screw-capped glass bottles at 38° C. for 24 hrs. Three replicates of each treatment are established. Phenylphosphorodiamide (PPD) is used as a urease inhibitor for comparison with Maduramicin monoammonium salt. Urea remaining is determined after extracting the soil for 60 minutes (with shaking) with 50 ml of 2M KCl containing 0.5 ug/ml of phenylmercuric acetate and filtering the soil suspension. Urea in the extract is determined colorimetrically (Douglas & Bremner, 1970). The percentage inhibition is calculated from (A-B)/(C-B) X 100-% inhibition; where A=the amount of urea found after incubation with the compound, B=the amount of urea found in the non-treated soil, and C=the amount of urea added.

Compound: OCc1ccccc1 [Benzyl Alcohol]
- AVERAGE YIELD 4-REPLICATES ([1]; N 168 kg/ha, chemical 1.2 l/ha): 140.9 HECTOLITERS/HECTARE
- Concentration of nitrite nitrogen (Nitrobacter spp.; 5%, week 0): 6 ppm
- Concentration of nitrite nitrogen (Nitrobacter spp.; 5%, week 1): 5 ppm
- Concentration of nitrite nitrogen (Nitrobacter spp.; 5%, week 2): 5 ppm
- Concentration of nitrite nitrogen (Nitrobacter spp.; 5%, week 4): 6 ppm
- Concentration of nitrite nitrogen (Nitrobacter spp.; 5%, week 7): 3 ppm
- Concentration of nitrite nitrogen (Nitrobacter spp.; 5%, week 9): -1 ppm
- Concentration of nitrite nitrogen (Nitrobacter spp.; 5%, week 12): 5 ppm
- Concentration of nitrite nitrogen (Nitrobacter spp.; 5%, week 16): 1 ppm
- Concentration of nitrite nitrogen (Nitrobacter spp.; 5%, week 20): 27 ppm
- Corn Leaf Tissue Analysis (total N) ([2]; 1.1 l/ha, NH3 168 kg N/ha): 271 10^2 ug/g
- AVERAGE YIELD 4-REPLICATES (corn (Pioneer 3352); N 168 kg/ha as NH3, chemical 1.2 l/ha): 165.3 HECTOLITERS/HECTARE
- Effect on nitrification, in words (Nitrosomonas spp.; 5%): markedly inhibited nitrification throughout the incubation period
- Concentration of nitrate nitrogen (Nitrosomonas spp.; 5%, week 0): 19 PPM
- Recovery of Ammonium Nitrogen (Nitrosomonas spp.; 5%, week 0): 194 PPM
- Concentration of nitrate nitrogen (Nitrosomonas spp.; 5%, week 1): 21 PPM
- Recovery of Ammonium Nitrogen (Nitrosomonas spp.; 5%, week 1): 163 PPM
- Concentration of nitrate nitrogen (Nitrosomonas spp.; 5%, week 2): 16 PPM
- Recovery of Ammonium Nitrogen (Nitrosomonas spp.; 5%, week 2): 163 PPM
- Concentration of nitrate nitrogen (Nitrosomonas spp.; 5%, week 4): 20 PPM
- Recovery of Ammonium Nitrogen (Nitrosomonas spp.; 5%, week 4): 168 PPM
- Concentration of nitrate nitrogen (Nitrosomonas spp.; 5%, week 7): 15 PPM
- Recovery of Ammonium Nitrogen (Nitrosomonas spp.; 5%, week 7): 164 PPM
- Concentration of nitrate nitrogen (Nitrosomonas spp.; 5%, week 9): 99 PPM
- Recovery of Ammonium Nitrogen (Nitrosomonas spp.; 5%, week 9): 41 PPM
- Concentration of nitrate nitrogen (Nitrosomonas spp.; 5%, week 12): 19 PPM
- Recovery of Ammonium Nitrogen (Nitrosomonas spp.; 5%, week 12): 163 PPM
- Concentration of nitrate nitrogen (Nitrosomonas spp.; 5%, week 16): 27 PPM
- Recovery of Ammonium Nitrogen (Nitrosomonas spp.; 5%, week 16): 169 PPM
- Concentration of nitrate nitrogen (Nitrosomonas spp.; 5%, week 20): 20 PPM
- Recovery of Ammonium Nitrogen (Nitrosomonas spp.; 5%, week 20): 139 PPM

Compound: Clc1cccc(C(Cl)(Cl)Cl)n1 [Nitrapyrin]
- AVERAGE YIELD 4-REPLICATES ([1]; N 84 kg/ha, chemical 0.56 kg/ha): 133.4 HECTOLITERS/HECTARE
- AVERAGE YIELD 4-REPLICATES ([1]; N 168 kg/ha, chemical 0.56 kg/ha): 148.8 HECTOLITERS/HECTARE
- Concentration of nitrite nitrogen (Nitrobacter spp.; 0.50 ppm, week 0): 6 ppm
- Concentration of nitrite nitrogen (Nitrobacter spp.; 0.50 ppm, week 1): 6 ppm
- Concentration of nitrite nitrogen (Nitrobacter spp.; 0.50 ppm, week 2): 3 ppm
- Concentration of nitrite nitrogen (Nitrobacter spp.; 0.50 ppm, week 4): 5 ppm
- Concentration of nitrite nitrogen (Nitrobacter spp.; 0.50 ppm, week 7): -1 ppm
- Concentration of nitrite nitrogen (Nitrobacter spp.; 0.50 ppm, week 9): 8 ppm
- Concentration of nitrite nitrogen (Nitrobacter spp.; 0.50 ppm, week 12): -10 ppm
- Concentration of nitrite nitrogen (Nitrobacter spp.; 0.50 ppm, week 16): 15 ppm
- Concentration of nitrite nitrogen (Nitrobacter spp.; 0.50 ppm, week 20): 34 ppm
- Corn Leaf Tissue Analysis (total N) ([2]; inhibitor 0.56 kg/ha, NH3 84 kg N/ha): 232 10^2 ug/g
- Corn Leaf Tissue Analysis (total N) ([2]; inhibitor 0.56 kg/ha, NH3 168 kg N/ha): 291 10^2 ug/g
- More nitrogen in leaf tissue than control plots with similar nitrogen ([2]; silt loam plots): 15-25%
- AVERAGE YIELD 4-REPLICATES (corn (Pioneer 3352); N 84 kg/ha as NH3, chemical 0.56 kg/ha): 160.1 HECTOLITERS/HECTARE
- AVERAGE YIELD 4-REPLICATES (corn (Pioneer 3352); N 168 kg/ha as NH3, chemical 0.56 kg/ha): 167.0 HECTOLITERS/HECTARE
- Nitrification (percent nitrified) (Nitrosomonas spp.; 0.50 ppm, by the 16th week): 65%
- Nitrification (percent nitrified) (Nitrosomonas spp.; 0.50 ppm, by the 20th week): 87%
- Time through which nitrification is delayed or inhibited (Nitrosomonas spp.; 0.5 ppm): 12 weeks
- Concentration of nitrate nitrogen (Nitrosomonas spp.; 0.50 ppm, week 0): 18 PPM
- Recovery of Ammonium Nitrogen (Nitrosomonas spp.; 0.50 ppm, week 0): 193 PPM
- Concentration of nitrate nitrogen (Nitrosomonas spp.; 0.50 ppm, week 1): 11 PPM
- Recovery of Ammonium Nitrogen (Nitrosomonas spp.; 0.50 ppm, week 1): 155 PPM
- Concentration of nitrate nitrogen (Nitrosomonas spp.; 0.50 ppm, week 2): 23 PPM
- Recovery of Ammonium Nitrogen (Nitrosomonas spp.; 0.50 ppm, week 2): 177 PPM
- Concentration of nitrate nitrogen (Nitrosomonas spp.; 0.50 ppm, week 4): 21 PPM
- Recovery of Ammonium Nitrogen (Nitrosomonas spp.; 0.50 ppm, week 4): 185 PPM
- Concentration of nitrate nitrogen (Nitrosomonas spp.; 0.50 ppm, week 7): 25 PPM
- Recovery of Ammonium Nitrogen (Nitrosomonas spp.; 0.50 ppm, week 7): 188 PPM
- Concentration of nitrate nitrogen (Nitrosomonas spp.; 0.50 ppm, week 9): 39 PPM
- Recovery of Ammonium Nitrogen (Nitrosomonas spp.; 0.50 ppm, week 9): 174 PPM
- Concentration of nitrate nitrogen (Nitrosomonas spp.; 0.50 ppm, week 12): 49 PPM
- Recovery of Ammonium Nitrogen (Nitrosomonas spp.; 0.50 ppm, week 12): 184 PPM
- Concentration of nitrate nitrogen (Nitrosomonas spp.; 0.50 ppm, week 16): 148 PPM
- Recovery of Ammonium Nitrogen (Nitrosomonas spp.; 0.50 ppm, week 16): 70 PPM
- Concentration of nitrate nitrogen (Nitrosomonas spp.; 0.50 ppm, week 20): 163 PPM
- Recovery of Ammonium Nitrogen (Nitrosomonas spp.; 0.50 ppm, week 20): 25 PPM
- Ammonium Recovery, reported as nitrogen (Nitrosomonos; week 0): 194 ppm
- Nitrate, reported as nitrogen (Nitrosomonos; week 0): 20 ppm
- Ammonium Recovery, reported as nitrogen (Nitrosomonos; week 1): 188 ppm
- Nitrate, reported as nitrogen (Nitrosomonos; week 1): 18 ppm
- Ammonium Recovery, reported as nitrogen (Nitrosomonos; week 2): 195 ppm
- Nitrate, reported as nitrogen (Nitrosomonos; week 2): 15 ppm
- Ammonium Recovery, reported as nitrogen (Nitrosomonos; week 4): 200 ppm
- Nitrate, reported as nitrogen (Nitrosomonos; week 4): 22 ppm
- Ammonium Recovery, reported as nitrogen (Nitrosomonos; week 7): 179 ppm
- Nitrate, reported as nitrogen (Nitrosomonos; week 7): 48 ppm
- Ammonium Recovery, reported as nitrogen (Nitrosomonos; week 9): 141 ppm
- Nitrate, reported as nitrogen (Nitrosomonos; week 9): 79 ppm
- Ammonium Recovery, reported as nitrogen (Nitrosomonos; week 12): 125 ppm
- Nitrate, reported as nitrogen (Nitrosomonos; week 12): 114 ppm
- Ammonium Recovery, reported as nitrogen (Nitrosomonos; week 16): 127 ppm
- Nitrate, reported as nitrogen (Nitrosomonos; week 16): 126 ppm
- Ammonium Recovery, reported as nitrogen (Nitrosomonos; week 20): 91 ppm
- Nitrate, reported as nitrogen (Nitrosomonos; week 20): 128 ppm
- Nitrite, reported as nitrogen (Nitrabacter; week 0): 6 ppm
- Nitrite, reported as nitrogen (Nitrabacter; week 1): 3 ppm
- Nitrite, reported as nitrogen (Nitrabacter; week 2): 12 ppm
- Nitrite, reported as nitrogen (Nitrabacter; week 4): 9 ppm
- Nitrite, reported as nitrogen (Nitrabacter; week 7): -27 ppm
- Nitrite, reported as nitrogen (Nitrabacter; week 9): 14 ppm
- Nitrite, reported as nitrogen (Nitrabacter; week 12): 14 ppm
- Nitrite, reported as nitrogen (Nitrabacter; week 16): 7 ppm
- Nitrite, reported as nitrogen (Nitrabacter; week 20): 27 ppm

Compound: NP(N)(=O)Oc1ccccc1 [PPD, Phenylphosphorodiamide]
- % INHIBITION (urease) (Urease; (A-B)/(C-B) X 100, urea 1000 ug/g soil): 63%
- AVERAGE amount of urea remaining (Urease; average of 3 replicates, urea 1000 ug/g soil): 769 µg/g
- AMOUNT REMAINING (urea) (Urease; single replicates, urea 1000 ug/g soil): 755 µg/g and 767 µg/g and 770 µg/g
